We go through 19 compounds from US20240398781A1, “SPIROCYCLIC CYCLIC MODULATORS OF CHOLESTEROL BIOSYNTHESIS AND THEIR USE FOR PROMOTING REMYELINATION” (GENENTECH, INC., priority 2021, published 2024).

Assay [1] has as its system EBP (zymostenol accumulation in EpiSC-derived OPCs). In words: GC/MS-based sterol profiling, zymostenol accumulation in OPCs. It counts as cell-based, mouse. As to conditions: Mus musculus, 24 h, EpiSC-derived OPCs, 24 hr treatment, 8 doses from 0.15 nM to 333 nM; read-out: Zymostenol GCMS EC50. In short, it runs like this:
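EpiSC-derived OPCs (100,000/well) were treated 24 h in N2B27 without growth factors. Sterols were TMS-derivatized and analysed by GC/MS full-scan EI, quantified against cholesterol-d7. Zymostenol was normalized to the level after 24 h with 100 nM positive control reference.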

The test system of assay [2] is EpiSC-derived OPCs. The assay is described as follows: In vitro phenotypic screening of OPCs (MBP staining, high-content imaging). It counts as cell-based, mouse. To be noted: Mus musculus, 72 h, percentage of MBP+ oligodendrocytes, 3 days, 0.5 nM to 1000 nM; read-out: OPC EC50. In short, it runs like this:
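Readout: high-content imaging of MBP immunostaining around DAPI nuclei, giving percent oligodendrocytes, with EC50 from a Levenberg-Marquardt Hill fit. Epiblast stem cell-derived OPCs were plated on laminin at 150,000/cm^2 in growth-factor-free N2B27. They were exposed 3 days to an 8-point series, 0.5-1000 nM final, in two or more independent platings.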

For assay [3], the target named is human EBP (Homo sapiens (Human), UniProt Q15125). In words: Competition binding assay (SPA, [3H]-Ifenprodil) to determine compound affinity to EBP. To be noted: [3H]-Ifenprodil 10 nM, HEK293 membrane overexpressing human EBP, Ki=IC50/(1+[L]/Kd); read-out: hEBP SPA Ki. In short, it runs like this:
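Membranes from HEK293 cells overexpressing human EBP, on SPA beads (0.3 mg beads, 5 µg membrane/well) in Tris/MgCl2/EDTA buffer pH 7.5 with 0.01% BSA and 0.1% DMSO, competed against [3H]-ifenprodil for 3 h to equilibrium. Compounds were tested at 1 µM single dose or 0.06 nM–5 µM; IC50 came from nonlinear fit, and Ki=IC50/(1+[L]/Kd).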

human EBP, sequence (Q15125 whole entry): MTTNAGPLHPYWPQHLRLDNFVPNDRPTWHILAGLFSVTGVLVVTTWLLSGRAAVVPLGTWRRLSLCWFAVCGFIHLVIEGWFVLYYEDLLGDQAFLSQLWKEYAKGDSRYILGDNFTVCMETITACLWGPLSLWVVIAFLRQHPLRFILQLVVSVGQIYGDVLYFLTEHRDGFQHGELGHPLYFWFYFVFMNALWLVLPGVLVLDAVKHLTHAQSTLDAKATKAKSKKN

For the compound `CC(C)n1nc(C(F)(F)F)cc1[C@H]1CC[C@H](N2CCC3(C2)CS(=O)(=O)C3)CC1` [Compound 8A, 6-((1r,4r)-4-(1-isopropyl-3-(trifluoromethyl)-1H-pyrazol-5-yl)cyclohexyl)-2-thia-6-azaspiro[3.4]octane 2,2-dioxide], the EC50 worked out at 0.014 µM in assay [1] and 0.071 µM in assay [2]. The Ki in assay [3] came to 0.016 µM.
On the same counts, the results for `CC(C)n1nc(C(F)(F)F)cc1[C@H]1CC[C@@H](N2CCC3(C2)CS(=O)(=O)C3)CC1` [Compound 8B, 6-((1s,4s)-4-(1-isopropyl-3-(trifluoromethyl)-1H-pyrazol-5-yl)cyclohexyl)-2-thia-6-azaspiro[3.4]octane 2,2-dioxide] are 0.026 µM, 0.24 µM and 0.021 µM.
On the same counts, the results for `O=S1(=O)CC2(CCN([C@H]3CC[C@H](c4cc(C(F)(F)F)nn4C4CC4)CC3)C2)C1` [Compound 12A, 6-((1r,4r)-4-(1-Cyclopropyl-3-(trifluoromethyl)-1H-pyrazol-5-yl)cyclohexyl)-2-thia-6-azaspiro[3.4]octane 2,2-dioxide] are 0.011 µM, 0.037 µM and 0.028 µM.
On the same counts, the results for `O=S1(=O)CC2(CCN([C@H]3CC[C@@H](c4cc(C(F)(F)F)nn4C4CC4)CC3)C2)C1` [Compound 12B, 6-((1s,4s)-4-(1-Cyclopropyl-3-(trifluoromethyl)-1H-pyrazol-5-yl)cyclohexyl)-2-thia-6-azaspiro[3.4]octane 2,2-dioxide] are 0.023 µM, 0.24 µM and 0.029 µM.
For `O=S1(=O)CC2(CCN([C@H]3CC[C@H](c4ccc(C(F)(F)F)nc4)CC3)C2)C1` [Compound 14A, 6-((1r,4r)-4-(6-(Trifluoromethyl)pyridin-3-yl)cyclohexyl)-2-thia-6-azaspiro[3.4]octane 2,2-dioxide], the values for the EC50 in assay [1] and in assay [2] were 0.011 µM and 0.016 µM, respectively. The Ki in assay [3] is 0.035 µM.
The matching figures for `O=S1(=O)CC2(CCN([C@H]3CC[C@@H](c4ccc(C(F)(F)F)nc4)CC3)C2)C1` [Compound 14B, 6-((1s,4s)-4-(6-(Trifluoromethyl)pyridin-3-yl)cyclohexyl)-2-thia-6-azaspiro[3.4]octane 2,2-dioxide]: 0.043 µM, 0.24 µM and 0.03 µM.
The matching figures for `CCn1nc(C(F)(F)F)cc1[C@H]1CC[C@H](N2CCC3(C2)CS(=O)(=O)C3)CC1` [Compound 15, 6-((1r,4r)-4-(1-Ethyl-3-(trifluoromethyl)-1H-pyrazol-5-yl)cyclohexyl)-2-thia-6-azaspiro[3.4]octane 2,2-dioxide]: 0.004 µM, 0.044 µM and 0.025 µM.
On the same counts, the results for `CCn1nc([C@H]2CC[C@H](N3CCC4(C3)CS(=O)(=O)C4)CC2)cc1C(F)(F)F` [Compound 16, 6-((1r,4r)-4-(1-Ethyl-5-(trifluoromethyl)-1H-pyrazol-3-yl)cyclohexyl)-2-thia-6-azaspiro[3.4]octane 2,2-dioxide] are 0.012 µM, 0.041 µM and 0.036 µM.
Turning to `Cc1cc(C(F)(F)F)ncc1[C@H]1CC[C@@H](N2CCC3(C2)CS(=O)(=O)C3)CC1` [Compound 21A, 6-((1s,4s)-4-(4-Methyl-6-(trifluoromethyl)pyridin-3-yl)cyclohexyl)-2-thia-6-azaspiro[3.4]octane 2,2-dioxide], the figures for the EC50 in assay [1] and in assay [2] were 0.012 µM and 0.037 µM, respectively. Also, the inhibition constant (Ki) in assay [3] was 0.023 µM.
On the same counts, the results for `Cc1cc(C(F)(F)F)ncc1[C@H]1CC[C@H](N2CCC3(C2)CS(=O)(=O)C3)CC1` [Compound 21B, 6-((1r,4r)-4-(4-Methyl-6-(trifluoromethyl)pyridin-3-yl)cyclohexyl)-2-thia-6-azaspiro[3.4]octane 2,2-dioxide] are 0.05 µM, 0.12 µM and 0.048 µM.
Consider `O=S1(=O)CC2(CCN([C@H]3CC[C@@H](c4cc(C(F)(F)F)nn4C4CCC4)CC3)C2)C1` [Compound 23A, 6-((1s,4s)-4-(1-Cyclobutyl-3-(trifluoromethyl)-1H-pyrazol-5-yl)cyclohexyl)-2-thia-6-azaspiro[3.4]octane 2,2-dioxide], for which the EC50 was found to be 0.031 µM in assay [1] and 0.1 µM in assay [2]. In addition, the Ki in assay [3] stood at 0.026 µM.
The matching figures for `O=S1(=O)CC2(CCN([C@H]3CC[C@H](c4cc(C(F)(F)F)nn4C4CCC4)CC3)C2)C1` [Compound 23B, 6-((1r,4r)-4-(1-Cyclobutyl-3-(trifluoromethyl)-1H-pyrazol-5-yl)cyclohexyl)-2-thia-6-azaspiro[3.4]octane 2,2-dioxide]: 0.009 µM, 0.028 µM and 0.021 µM.
As to `O=S1(=O)CC2(CCN([C@H]3CC[C@H](c4cc(C(F)(F)F)n(C5CCC5)n4)CC3)C2)C1` [Compound 24, 6-((1r,4r)-4-(1-cyclobutyl-5-(trifluoromethyl)-1H-pyrazol-3-yl)cyclohexyl)-2-thia-6-azaspiro[3.4]octane 2,2-dioxide], the results for the EC50 in assay [1] and in assay [2] were 0.003 µM and 0.006 µM, respectively. In addition, the Ki in assay [3] is 0.028 µM.
With `Cn1nc(C(F)(F)F)cc1[C@H]1CC[C@@H](N2CCC3(CC2)CS(=O)(=O)C3)CC1` [Compound 25A, 7-((1s,4s)-4-(1-Methyl-3-(trifluoromethyl)-1H-pyrazol-5-yl)cyclohexyl)-2-thia-7-azaspiro[3.5]nonane 2,2-dioxide], the EC50 amounted to 0.043 µM in assay [1] and 0.1 µM in assay [2]. Besides, the Ki in assay [3] was determined as 0.11 µM.
Consider `Cn1nc(C(F)(F)F)cc1[C@H]1CC[C@H](N2CCC3(CC2)CS(=O)(=O)C3)CC1` [Compound 25B, 7-((1r,4r)-4-(1-methyl-3-(trifluoromethyl)-1H-pyrazol-5-yl)cyclohexyl)-2-thia-7-azaspiro[3.5]nonane 2,2-dioxide], for which the values for the EC50 in assay [1] and in assay [2] were 0.026 µM and 0.087 µM, respectively. Further, the Ki in assay [3] stood at 0.058 µM.
The matching figures for `Cc1cc(C(F)(F)F)ncc1N1CCC(N2CCC3(C2)CS(=O)(=O)C3)CC1` [Compound 28, 6-(1-(4-Methyl-6-(trifluoromethyl)pyridin-3-yl)piperidin-4-yl)-2-thia-6-azaspiro[3.4]octane 2,2-dioxide]: 0.0075 µM, 0.064 µM and 0.033 µM.
On the same counts, the results for `Cc1nc(C(F)(F)F)ccc1N1CCC(N2CCC3(C2)CS(=O)(=O)C3)CC1` [Compound 29, 6-(1-(2-methyl-6-(trifluoromethyl)pyridin-3-yl)piperidin-4-yl)-2-thia-6-azaspiro[3.4]octane 2,2-dioxide] are 0.0071 µM, 0.039 µM and 0.045 µM.
The matching figures for `O=S1(=O)CC2(CCN(C3CCN(c4ncc(C(F)(F)F)cc4Cl)CC3)C2)C1` [Compound 30, 6-(1-(3-chloro-5-(trifluoromethyl)pyridin-2-yl)piperidin-4-yl)-2-thia-6-azaspiro[3.4]octane 2,2-dioxide]: 0.005 µM, 0.01 µM and 0.039 µM.
As for `Cc1cc(F)cnc1N1CCC(N2CCC3(C2)CS(=O)(=O)C3)CC1` [Compound 31, 6-(1-(5-fluoro-3-methylpyridin-2-yl)piperidin-4-yl)-2-thia-6-azaspiro[3.4]octane 2,2-dioxide], the EC50 in assay [1] is 0.032 µM; in assay [2] it was 0.19 µM. Further, in assay [3], the Ki came to 0.059 µM.
